In patent publication US6875743B1, “Cell adhesion inhibitors” (Biogen, Inc., priority 1996, dated 2005):
Numbered stars: 1 amine (or outer) side, 2 acyl side, 3 side chain; on linkers, the order of the positions; unused ones are H or OH. Square brackets hold non-standard residues; d marks the D form. Peptide text beside a SMILES is read from it. * marks the point of attachment. Fmoc = O=C(OCC1c2ccccc2-c2ccccc21)*; X5 = COc1cc(CC(=O)[*:2])ccc1N[*:1]; Hydrocinnamoyl = O=C(CCc1ccccc1)*; X1 = O=C(Cc1ccc(N[*:1])cc1)[*:2]; NH(2-Me-phenyl) = Cc1ccccc1N*; NMeL = CN[CH](CC(C)C)C(=O)O; Nle = CCCC[CH](N)C(=O)O; PhAc = O=C(Cc1ccccc1)*; CO = O=C([*:1])[*:2]; NHPh = c1ccc(N*)cc1

Target: T1, VLA4 (Homo sapiens, UniProt P05556+P13612)
T1 construct: endogenous in cells; host or cells: Ramos cells
Test: Inhibition of VLA4-dependent adhesion to BSA-CS1
Format: cell-based
Settings: binding of BCECF-labelled Ramos cells to BSA-CS1 coated wells, 2 mM MnCl2; read-out: IC50
Excerpt: For example, the cell adhesion inhibitory activity of these compounds may be measured by determining the concentration of inhibitor required to block the binding of VLA-4-expressing cells to fibronectin- or CS1-coated plates. In this assay microtiter wells are coated with either fibronectin (containing the CS-1 sequence) or CS-1. If CS-1 is used, it must be conjugated to a carrier protein, such as bovine serum albumin, in order to bind to the wells. Once the wells are coated, varying concentrations of the test compound are then added together with appropriately labelled, VLA-4-expressing cells. Alternatively, the test compound may be added first and allowed to incubate with the coated wells prior to the addition of the cells. The cells are allowed to incubate in the wells for at least 30 minutes. Following incubation, the wells are emptied and washed. Inhibition of binding is measured by quantitating the fluorescence or radioactivity bound to the plate for each of the various concentrations of test compound, as well as for controls containing no test compound.
VLA-4-expressing cells that may be utilized in this assay include Ramos cells, Jurkat cells, A375 melanoma cells, as well as human peripheral blood lymophocytes (PBLs). The cells used in this assay may be fluorescently or radioactively labelled.
This assay was used to assess the potency of VLA4-directed inhibitory compounds of this invention.
We dissolved BSA-SMCC (Pierce Chemical, Rockford, Ill.; Catalog #77115) in H2O at a concentration of 10 mg/mL. [SEQ ID NO:4]: […](“Cys-Tyr-CS1 peptide”), which we synthesized by conventional solid phase chemistry and purified by HPLC, was dissolved in 10 mM HEPES pH 5, 50 mM NaCl and 0.1 mM EDTA also at a concentration of 10 mg/mL. We then mixed 500 μL of BSA-SMCC, 250 μL of Cys-Tyr-CS1 peptide and 75 μL of 1 mM HEPES pH 7.5 and allowed the conjugation reaction to proceed for 30 minutes. We stopped the reaction by adding 1 μL of beta-mercaptoethanol. Samples were analyzed for cross-linking by SDS-PAGE.
We coated the wells of a Linbro titertek polystyrene 96-well flat bottom plate (Flow Laboratories, Maclean, Va.; catalog #76-231-05) with 100 μL of the above-described BSA-CS1 solution diluted to 1 μg/mL in 0.05 M NaHCO3 (15 mM NaHCO3, 35 mM Na2CO3) pH 9.2. Some wells were not coated with CS1 in order to assess non-specific cell binding (NSB). The plate was then incubated overnight at 4° C.
Following this incubation, the contents of the wells were removed by inverting and blotting the plate. All of the wells were then blocked with 100 μL of 1% BSA in PBS, 0.02% NaN3, for a minimum of one hour at room temperature.
Ramos cells are grown, maintained and labelled in RPMI 1640 culture medium containing 1% BSA. Just prior to running the assay, we added 2′,7′-bis-(2-carboxyethyl)-5 (and -6) carboxyfluorescein acetoxymethyl ester (“BCECF-AM”; Molecular Probes Inc., Eugene, Oreg.; catalog #B-1150) to a final concentration of 2 μM to a culture of Ramos cells (4×10^6 cells/mL). We incubated the cells for 20 minutes at 37° C.
Following labelling, the cells were washed twice in assay buffer (24 mM TRIS, 137 mM NaCl, 2.7 mM KCl, pH 7.4, containing 0.1% BSA and 2 mM glucose) to remove any cations originating from the culture medium. The cells were then resuspended in assay buffer to 4×10^6 cells/mL and 2 mM MnCl2 was added to upregulate VLA4 on the surface of the cells.
Immediately prior to running the assay, we removed the BSA blocking solution from the 96-well plates and washed the wells with 100 μL of assay buffer. We then added to each well 25 μL of test cell adhesion inhibitory compound at 2× the final concentration and 25 μL of the labelled Ramos cells. […] Each concentration of compound was tested in triplicate. The compound and cells are allowed to incubate for 30 minutes at room temperature.

T1 sequence (P13612 34-1032): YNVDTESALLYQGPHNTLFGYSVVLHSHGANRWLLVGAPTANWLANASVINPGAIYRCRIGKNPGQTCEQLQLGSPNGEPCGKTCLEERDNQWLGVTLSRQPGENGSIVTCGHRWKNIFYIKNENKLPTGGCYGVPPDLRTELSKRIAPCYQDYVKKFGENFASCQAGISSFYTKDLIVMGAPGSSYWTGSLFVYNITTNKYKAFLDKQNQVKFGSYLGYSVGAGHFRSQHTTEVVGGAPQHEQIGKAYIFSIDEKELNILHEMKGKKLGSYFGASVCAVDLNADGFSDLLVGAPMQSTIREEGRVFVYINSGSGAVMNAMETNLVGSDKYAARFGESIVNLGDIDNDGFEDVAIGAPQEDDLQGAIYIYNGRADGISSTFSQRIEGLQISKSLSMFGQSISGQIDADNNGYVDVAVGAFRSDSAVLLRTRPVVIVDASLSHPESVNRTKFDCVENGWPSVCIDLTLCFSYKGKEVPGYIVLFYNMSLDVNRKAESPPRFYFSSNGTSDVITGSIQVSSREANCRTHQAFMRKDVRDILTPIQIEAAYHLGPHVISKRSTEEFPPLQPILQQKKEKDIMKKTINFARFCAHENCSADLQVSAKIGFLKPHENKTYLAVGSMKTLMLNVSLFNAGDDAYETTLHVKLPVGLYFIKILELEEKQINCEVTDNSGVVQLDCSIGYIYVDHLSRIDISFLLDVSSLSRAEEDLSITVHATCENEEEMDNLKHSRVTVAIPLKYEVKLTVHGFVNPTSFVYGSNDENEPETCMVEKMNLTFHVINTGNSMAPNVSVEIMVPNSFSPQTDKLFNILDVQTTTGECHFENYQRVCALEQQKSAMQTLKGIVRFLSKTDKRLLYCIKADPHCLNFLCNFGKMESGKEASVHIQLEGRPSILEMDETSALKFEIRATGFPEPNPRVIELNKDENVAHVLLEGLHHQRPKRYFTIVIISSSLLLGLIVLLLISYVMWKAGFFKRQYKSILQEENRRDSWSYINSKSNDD
T1 sequence (P05556 21-798): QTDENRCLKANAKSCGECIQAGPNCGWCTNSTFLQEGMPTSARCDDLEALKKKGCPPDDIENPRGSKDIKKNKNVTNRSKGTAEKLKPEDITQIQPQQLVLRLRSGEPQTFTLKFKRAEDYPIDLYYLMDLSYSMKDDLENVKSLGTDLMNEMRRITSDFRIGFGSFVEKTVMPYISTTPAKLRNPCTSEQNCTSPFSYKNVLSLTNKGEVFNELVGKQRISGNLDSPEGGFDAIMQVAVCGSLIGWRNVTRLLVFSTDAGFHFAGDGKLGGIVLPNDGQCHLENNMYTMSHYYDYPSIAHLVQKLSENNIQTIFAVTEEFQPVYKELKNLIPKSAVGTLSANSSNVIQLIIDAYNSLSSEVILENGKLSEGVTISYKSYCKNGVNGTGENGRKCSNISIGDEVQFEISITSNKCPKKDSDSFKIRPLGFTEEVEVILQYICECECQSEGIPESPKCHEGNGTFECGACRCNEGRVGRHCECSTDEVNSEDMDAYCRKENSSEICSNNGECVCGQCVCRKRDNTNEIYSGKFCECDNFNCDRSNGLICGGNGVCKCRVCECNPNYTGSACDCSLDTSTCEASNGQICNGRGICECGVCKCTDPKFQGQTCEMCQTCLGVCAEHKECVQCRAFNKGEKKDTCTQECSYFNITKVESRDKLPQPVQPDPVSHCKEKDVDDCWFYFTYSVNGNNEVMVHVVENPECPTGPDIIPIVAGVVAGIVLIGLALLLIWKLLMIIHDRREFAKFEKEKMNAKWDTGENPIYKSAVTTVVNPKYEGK

| SMILES | IC50 [nM] |
| --- | --- |
| Cc1ccccc1NC(=O)Nc1ccc(CC(=O)N[C@H](C(=O)N[C@@H](CC(=O)O)C(=O)N[C@H](C(N)=O)[C@@H](C)O)[C@@H](C)O)cc1 [Compound 257] | < 50 |
| Cc1ccccc1NC(=O)Nc1ccc(CC(=O)N2CCC[C@H]2C(=O)N[C@@H](CC(=O)O)C(=O)N[C@@H](CC(=O)O)C(N)=O)cc1 [Compound 241] | < 50 |
| Cc1ccccc1NC(=O)Nc1ccc(CC(=O)N[C@H](C(=O)N[C@@H](CC(=O)O)C(=O)N[C@H](CO)C(N)=O)[C@@H](C)O)cc1 [Compound 262] | < 50 |
| CSCC[C@H](NC(=O)Cc1ccc(NC(=O)Nc2ccccc2C)cc1)C(=O)N[C@@H](CC(=O)O)C(=O)N[C@H](CCC(=O)O)C(N)=O [Compound 227] | < 50 |
| Cc1ccccc1NC(=O)Nc1ccc(CC(=O)N[C@@H](CO)C(=O)N[C@@H](CC(=O)O)C(=O)N[C@H](CCC(=O)O)C(N)=O)cc1 [Compound 283] | < 50 |
| COc1cc(CC(=O)NC(CCSC)C(=O)NC(CC(=O)O)C(=O)NC(C(=O)N2CCCC2C(=O)O)C(C)C)ccc1NC(=O)Nc1ccccc1 (stereo not shown) [Compound 2] ({NHPh-CO}-[X5]MDVP-OH; configuration not given here) | < 50 |
| Cc1ccccc1NC(=O)Nc1ccc(CC(=O)N2CCC[C@H]2C(=O)N[C@@H](CCC(=O)O)C(=O)O)cc1 [Compound 416] | 50 to 10000 |
| Cc1ccccc1NC(=O)Nc1ccc(CC(=O)N[C@H](CC(C)C)C(=O)N[C@@H](CC(=O)O)C(=O)N[C@@H](Cc2c[nH]c3ccccc23)C(N)=O)cc1 [Compound 295] | < 50 |
| Cc1ccccc1NC(=O)Nc1ccc(CC(=O)N2CCC[C@H]2C(=O)N[C@@H](CC(=O)O)C(=O)N[C@H](CC(C)C)C(=O)O)cc1 [Compound 411] | < 50 |
| Cc1ccccc1NC(=O)Nc1ccc(CC(=O)N[C@@H](CCC(N)=O)C(=O)N[C@@H](CC(=O)O)C(=O)N[C@@H](Cc2c[nH]c3ccccc23)C(N)=O)cc1 [Compound 306] | < 50 |
| Cc1ccccc1NC(=O)Nc1ccc(CC(=O)N2CCC[C@H]2C(=O)N[C@@H](CC(=O)O)C(=O)N[C@H](CC(N)=O)C(N)=O)cc1 [Compound 248] | < 50 |
| Cc1ccccc1NC(=O)Nc1ccc(CC(=O)N2CCC[C@H]2C(=O)N[C@@H](CC(=O)O)C(=O)O)cc1 [Compound 342] | > 10000 |
| Cc1ccccc1NC(=O)Nc1ccc(CC(=O)N[C@H](C(=O)N[C@@H](CC(C)C)C(=O)N2CCC[C@H]2C(=O)N[C@@H](CC(=O)O)C(=O)O)C(C)C)cc1 [Compound 339] ({NH(2-Me-phenyl)-CO}-[X1]VLPD-OH) | > 10000 |
| Cc1ccccc1NC(=O)Nc1ccc(CC(=O)N2CCC[C@H]2C(=O)N[C@@H](CC(=O)O)C(=O)N[C@H](C(N)=O)C(C)C)cc1 [Compound 243] | < 50 |
| CSCC[C@H](NC(=O)Cc1ccc(NC(=O)Nc2ccccc2C)cc1)C(=O)N[C@@H](CC(=O)O)C(=O)N[C@H](CO)C(N)=O [Compound 229] | < 50 |
| Cc1ccccc1NC(=O)Nc1ccc(CC(=O)N[C@H](CC(C)C)C(=O)N[C@@H](CC(=O)O)C(=O)N[C@H](CCC(=O)O)C(N)=O)cc1 [Compound 294] | < 50 |
| CSCC[C@H](NC(=O)Cc1ccc(NC(=O)Nc2ccccc2C)cc1)C(=O)N[C@@H](CC(=O)O)C(=O)N[C@H](CC(N)=O)C(N)=O [Compound 226] | < 50 |
| Cc1ccccc1NC(=O)Nc1ccc(CC(=O)N2CCC[C@H]2C(=O)N[C@@H](CCC(=O)O)C(=O)N[C@H](CC(C)C)C(=O)O)cc1 [Compound 415] | 50 to 10000 |
| Cc1ccccc1NC(=O)Nc1ccc(CC(=O)N[C@H](C(=O)N[C@@H](CC(=O)O)C(=O)N[C@H](CC(C)C)C(N)=O)[C@@H](C)O)cc1 [Compound 255] | < 50 |

Now from value to molecule:

| IC50 [nM] | SMILES |
| --- | --- |
| > 10000 | CC(C)C[C@H](NC(=O)C1C2CC3CC(C2)CC1C3)C(=O)N[C@@H](CC(=O)O)C(=O)N[C@H](C(=O)O)C(C)C (stereo partly shown) [Compound 398] |
| > 10000 | CC(C)C[C@H](NC(=O)c1ccc2ccccc2n1)C(=O)N[C@@H](CC(=O)O)C(=O)N[C@H](C(N)=O)C(C)C [Compound 178] |
| < 50 | CC[C@H](C)[C@H](NC(=O)[C@H](CC(=O)O)NC(=O)[C@H](CC(C)C)NC(=O)Cc1ccc(NC(=O)Nc2ccccc2C)cc1)C(=O)O [Compound 345] |
| > 10000 | CC(C)C[C@H](NC(=O)N1c2ccccc2CCc2ccccc21)C(=O)N[C@@H](CC(=O)O)C(=O)N[C@H](C(=O)O)C(C)C [Compound 408] |
| > 10000 | CC(C)C[C@H](NC(=O)c1ccc2c(c1)OCO2)C(=O)N[C@@H](CC(=O)O)C(=O)N[C@H](C(=O)O)C(C)C [Compound 406] |
| < 50 | Cc1ccccc1NC(=O)Nc1ccc(CC(=O)N[C@@H](CC(C)C)C(=O)N[C@@H](CC(=O)O)C(=O)N[C@H](CC(C)C)C(N)=O)cc1 [Compound 233] |
| 50 to 10000 | CCCCC(NC(=O)C(NC(=O)C(CC(=O)O)NC(=O)C(CC(C)C)NC(=O)Cc1ccccc1)C(C)C)C(=O)O (stereo not shown) [Compound 43] (PhAc-LDV[Nle]-OH; configuration not given here) |
| < 50 | Cc1ccccc1NC(=O)Nc1ccc(CC(=O)N[C@@H](CC(C)C)C(=O)N[C@@H](CC(=O)O)C(=O)N[C@@H](CC(C)C)C(N)=O)cc1 [Compound 231] |
| 50 to 10000 | CC(C)C[C@H](NC(=O)Cc1ccc(NC(=O)Nc2ccccc2)cc1)C(=O)N[C@@H](CC(=O)O)C(=O)N[C@@H](C(=O)N1CCC[C@H]1C(N)=O)C(C)C [Compound 211] ({NHPh-CO}-[X1]LD[dV]P-NH2) |
| > 10000 | CC(C)C[C@H](NC(=O)c1ccc(-c2ccccn2)s1)C(=O)N[C@@H](CC(=O)O)C(=O)N[C@H](C(=O)O)C(C)C [Compound 407] |
| 50 to 10000 | CC(C)C[C@@H](NC(=O)Cc1ccc(NC(=O)Nc2ccccc2)cc1)C(=O)N[C@H](CC(=O)O)C(=O)N[C@@H](C(=O)N1CCC[C@@H]1C(N)=O)C(C)C [Compound 212] ({NHPh-CO}-[X1][dL][dD][dV][dP]-NH2) |
| > 10000 | CC(C)C[C@H](NC(=O)c1ccc2c(c1)CCO2)C(=O)N[C@@H](CC(=O)O)C(=O)N[C@H](C(=O)O)C(C)C [Compound 387] |
| 50 to 10000 | CC(C)CC(NC(=O)Cc1ccc(NC(=O)Nc2ccccc2)cc1)C(=O)NC(CC(=O)O)C(=O)NC(C(=O)N1CCCC1C(N)=O)C(C)C (stereo not shown) [Compound 199] ({NHPh-CO}-[X1]LDVP-NH2; configuration not given here) |
| 50 to 10000 | CC(C)C[C@H](NC(=O)Cc1ccc(NC(=O)Nc2ccccc2)cc1)C(=O)N[C@H](CC(=O)O)C(=O)N[C@H](C(=O)N1CCC[C@H]1C(N)=O)C(C)C [Compound 210] ({NHPh-CO}-[X1]L[dD]VP-NH2) |
| < 50 | Cc1ccccc1NC(=O)Nc1ccc(CC(=O)N[C@H](CC(C)C)C(=O)N[C@@H](CC(=O)O)C(=O)N[C@H](CC(C)C)C(N)=O)cc1 [Compound 289] |
| 50 to 10000 | CC(C)CC(NC(=O)Cc1ccc(NC(=O)Nc2ccccc2)cc1)C(=O)NC(CC(=O)O)C(=O)NC(C(=O)N1CCCC1C(N)=O)C(C)C (stereo not shown) [Compound 201] ({NHPh-CO}-[X1]LDVP-NH2; configuration not given here) |
| > 10000 | CNC(=O)C(NC(=O)C(CC(=O)O)NC(=O)C(CC(C)C)N(C)C(=O)CCc1ccccc1)C(C)C (stereo not drawn) [Compound 184] (Hydrocinnamoyl-[NMeL]-Asp-Val-NHMe; configuration not given here) |
| > 10000 | CC(C)C[C@H](NC(=O)OCC1c2ccccc2-c2ccccc21)C(=O)N[C@@H](CC(=O)O)C(=O)N[C@H](C(=O)O)C(C)C [Compound 366] (Fmoc-Leu-Asp-Val-OH) |
